Measured values taken from PubChem BioAssay (NCI).
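Values below derive from 48-hour exposures of cells grown in 96-well plates, with endpoints linearly interpolated between the two concentrations bracketing the appropriate inhibition level. TGI is the concentration that stops growth completely.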

Key:
Assay in all cases: NCI tumour cell line growth inhibition, 48 h
[1] = test system: U251 CNS
[2] = test system: EKVX NSCLC
[3] = test system: UACC-62 melanoma
[4] = test system: DMS 273 small cell lung
[5] = test system: SNB-78 CNS
[6] = test system: A498 renal
[7] = test system: HL-60(TB) leukemia
[8] = test system: SNB-19 CNS
[9] = test system: HOP-92 NSCLC
[10] = test system: CCRF-CEM leukemia
[11] = test system: NCI-H460 lung
[12] = test system: SK-OV-3 ovarian
[13] = test system: UO-31 renal
[14] = test system: HT29 colon
[15] = test system: OVCAR-5 ovarian
[16] = test system: OVCAR-8 ovarian
[17] = test system: A549 NSCLC
[18] = test system: SF-268 CNS
[19] = test system: SK-MEL-28 melanoma
[20] = test system: NCI-H23 lung
[21] = test system: RXF 393 renal
[22] = test system: SR leukemia
[23] = test system: ACHN renal
[24] = test system: TK-10 renal
[25] = test system: KM12 colon
[26] = test system: M14 melanoma
[27] = test system: IGROV1 ovarian
[28] = test system: HOP-62 NSCLC
[29] = test system: UACC-257 melanoma
[30] = test system: MOLT-4 leukemia
[31] = test system: M19-MEL melanoma
[32] = test system: SF-295 CNS
[33] = test system: NCI-H522 lung
[34] = test system: MDA-MB-435
[35] = test system: BT-549 breast
[36] = test system: NCI/ADR-RES ovarian
[37] = test system: OVCAR-4 ovarian
[38] = test system: MDA-MB-231 breast
[39] = test system: MDA-N
[40] = test system: HS 578T breast
[41] = test system: DU-145 prostate
[42] = test system: OVCAR-3 ovarian
[43] = test system: MCF7 breast
[44] = test system: HCC-2998 colon
[45] = test system: NCI-H226 lung
[46] = test system: LOX IMVI melanoma
[47] = test system: HCT-116 colon
[48] = test system: SF-539 CNS
[49] = test system: RPMI-8226 leukemia
[50] = test system: SK-MEL-2 melanoma
[51] = test system: T-47D breast
[52] = test system: SW-620 colon
[53] = test system: COLO 205 colon
[54] = test system: K-562 leukemia
[55] = test system: PC-3 prostate
[56] = test system: CAKI-1 renal
[57] = test system: SNB-75 CNS
[58] = test system: SK-MEL-5 melanoma
[59] = test system: MALME-3M melanoma
[60] = test system: SN12C renal
[61] = test system: HCT-15 colon

CC1(C(=O)Nc2ccc3ccccc3c2)CC2(C)CC(C)(C1)C(O)NC2=O (stereo unspecified)
TGI [1]: > 100 µM
TGI [2]: > 100 µM
TGI [3]: > 100 µM
TGI [4]: > 100 µM
TGI [5]: > 100 µM
TGI [6]: > 100 µM
TGI [7]: > 100 µM
TGI [8]: > 100 µM
TGI [9]: > 100 µM
TGI [10]: > 100 µM
TGI [11]: > 100 µM
TGI [12]: > 100 µM
TGI [13]: > 100 µM
TGI [14]: > 100 µM
TGI [15]: > 100 µM
TGI [16]: > 100 µM
TGI [17]: > 100 µM
TGI [18]: > 100 µM
TGI [19]: > 100 µM
TGI [20]: > 100 µM
TGI [21]: > 100 µM
TGI [22]: > 100 µM
TGI [23]: > 100 µM
TGI [24]: > 100 µM
TGI [25]: > 100 µM
TGI [26]: > 100 µM
TGI [27]: > 100 µM
TGI [28]: > 100 µM
TGI [29]: > 100 µM
TGI [30]: > 100 µM
TGI [31]: > 100 µM
TGI [32]: > 100 µM
TGI [33]: > 100 µM

CO/N=C\c1cc(O)c(O)c(/C=N/OC)c1
TGI [1]: > 100 µM
TGI [2]: > 100 µM
TGI [34]: > 100 µM
TGI [3]: > 100 µM
TGI [35]: > 100 µM
TGI [36]: > 100 µM
TGI [37]: > 100 µM
TGI [38]: > 100 µM
TGI [39]: > 100 µM
TGI [6]: > 100 µM
TGI [7]: 99.3 µM
TGI [8]: > 100 µM
TGI [9]: > 100 µM
TGI [10]: > 100 µM
TGI [40]: 71.1 µM
TGI [41]: > 100 µM
TGI [42]: > 100 µM
TGI [11]: > 100 µM
TGI [12]: > 100 µM
TGI [13]: > 100 µM
TGI [43]: 94.8 µM
TGI [14]: > 100 µM
TGI [15]: > 100 µM
TGI [44]: > 100 µM
TGI [16]: > 100 µM
TGI [45]: 88.9 µM
TGI [46]: > 100 µM
TGI [47]: > 100 µM
TGI [17]: > 100 µM
TGI [18]: > 100 µM
TGI [48]: > 100 µM
TGI [19]: > 100 µM
TGI [49]: > 100 µM
TGI [20]: 99.4 µM
TGI [50]: > 100 µM
TGI [21]: > 100 µM
TGI [51]: > 100 µM
TGI [22]: > 100 µM
TGI [52]: > 100 µM
TGI [53]: > 100 µM
TGI [54]: > 100 µM
TGI [23]: > 100 µM
TGI [24]: > 100 µM
TGI [25]: > 100 µM
TGI [55]: > 100 µM
TGI [56]: > 100 µM
TGI [26]: > 100 µM
TGI [57]: > 100 µM
TGI [58]: > 100 µM
TGI [27]: > 100 µM
TGI [59]: > 100 µM
TGI [28]: > 100 µM
TGI [29]: > 100 µM
TGI [60]: > 100 µM
TGI [61]: > 100 µM
TGI [30]: > 100 µM
TGI [32]: > 100 µM
TGI [33]: > 100 µM
